# Experimental data taken from ChEMBL document CHEMBL1201862, “PubChem BioAssay data set” (2004).
# Active and inactive are the calls of the source.
# Assays:
# Cytochrome P450 2D6 = Cytochrome P450 2D6 (Homo sapiens, UniProt P10635);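 note: CYP2D6 member of a cytochrome P450 panel assay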
# cells = type: functional
# [1] = molecular target: T1, Corticotropin-releasing factor receptor 2/Corticotropin-releasing factor-binding protein (Homo sapiens, UniProt P24387+Q13324); test: activators of CRF receptor 2 with binding protein – uHTS hits, confirmation (AID 602473); type: functional; settings: read-out: EC50_Mean
# T1 sequence (Q13324 whole entry): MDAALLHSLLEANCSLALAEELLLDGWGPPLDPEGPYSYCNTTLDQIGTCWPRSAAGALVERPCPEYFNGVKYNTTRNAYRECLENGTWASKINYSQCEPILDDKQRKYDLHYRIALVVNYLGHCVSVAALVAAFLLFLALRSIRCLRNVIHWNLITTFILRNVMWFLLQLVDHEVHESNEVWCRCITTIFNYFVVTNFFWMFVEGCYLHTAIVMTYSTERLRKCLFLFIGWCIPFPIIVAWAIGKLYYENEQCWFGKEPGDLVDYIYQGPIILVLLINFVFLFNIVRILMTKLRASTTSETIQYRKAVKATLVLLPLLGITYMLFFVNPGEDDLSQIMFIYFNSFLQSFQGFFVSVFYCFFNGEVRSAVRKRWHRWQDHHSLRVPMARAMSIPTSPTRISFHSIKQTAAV
# T1 sequence (P24387 whole entry): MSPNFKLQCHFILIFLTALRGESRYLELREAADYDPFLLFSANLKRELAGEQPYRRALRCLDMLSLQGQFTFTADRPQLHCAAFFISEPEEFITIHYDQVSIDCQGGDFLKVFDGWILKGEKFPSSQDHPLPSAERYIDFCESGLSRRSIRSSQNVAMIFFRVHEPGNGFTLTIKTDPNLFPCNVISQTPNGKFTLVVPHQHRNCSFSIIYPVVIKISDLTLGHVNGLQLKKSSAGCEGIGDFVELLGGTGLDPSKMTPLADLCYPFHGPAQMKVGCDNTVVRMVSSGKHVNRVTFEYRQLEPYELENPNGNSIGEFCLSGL
# [2] = Luminescence Cell-Based Dose Retest to Confirm Inhibitors of Cancer Stem Cells. [Related pubchem assays (depositor defined):AID2717, AID2721]; type: functional; settings: Homo sapiens
# Cytochrome P450 2C19 = Cytochrome P450 2C19 (Homo sapiens, UniProt P33261); test: Cytochrome panel assay with activity outcomes. Panel member name: p450-cyp2c19 Compounds with AC50 equal or less than 10 uM are considered active; type: functional; settings: read-out: AC50
# Sequence of Cytochrome P450 2C19 (P33261 whole entry): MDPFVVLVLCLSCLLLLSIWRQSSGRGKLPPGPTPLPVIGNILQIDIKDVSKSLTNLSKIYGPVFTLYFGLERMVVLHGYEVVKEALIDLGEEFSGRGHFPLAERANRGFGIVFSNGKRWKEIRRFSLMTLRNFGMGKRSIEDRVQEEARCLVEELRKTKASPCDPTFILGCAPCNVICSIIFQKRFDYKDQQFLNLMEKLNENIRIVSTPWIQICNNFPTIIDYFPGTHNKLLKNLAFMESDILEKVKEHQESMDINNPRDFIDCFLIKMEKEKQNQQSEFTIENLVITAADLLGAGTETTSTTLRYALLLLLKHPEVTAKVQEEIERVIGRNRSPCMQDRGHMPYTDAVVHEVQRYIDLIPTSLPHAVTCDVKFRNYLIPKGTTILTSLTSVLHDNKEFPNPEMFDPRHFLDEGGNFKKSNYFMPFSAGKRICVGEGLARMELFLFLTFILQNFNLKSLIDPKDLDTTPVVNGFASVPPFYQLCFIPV
# Cytochrome P450 1A2 = molecular target: T2, Cytochrome P450 1A2 (Homo sapiens, UniProt P05177);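 note: PubChem cytochrome P450 panel assay, CYP1A2 panel member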
# T2 sequence (P05177 whole entry): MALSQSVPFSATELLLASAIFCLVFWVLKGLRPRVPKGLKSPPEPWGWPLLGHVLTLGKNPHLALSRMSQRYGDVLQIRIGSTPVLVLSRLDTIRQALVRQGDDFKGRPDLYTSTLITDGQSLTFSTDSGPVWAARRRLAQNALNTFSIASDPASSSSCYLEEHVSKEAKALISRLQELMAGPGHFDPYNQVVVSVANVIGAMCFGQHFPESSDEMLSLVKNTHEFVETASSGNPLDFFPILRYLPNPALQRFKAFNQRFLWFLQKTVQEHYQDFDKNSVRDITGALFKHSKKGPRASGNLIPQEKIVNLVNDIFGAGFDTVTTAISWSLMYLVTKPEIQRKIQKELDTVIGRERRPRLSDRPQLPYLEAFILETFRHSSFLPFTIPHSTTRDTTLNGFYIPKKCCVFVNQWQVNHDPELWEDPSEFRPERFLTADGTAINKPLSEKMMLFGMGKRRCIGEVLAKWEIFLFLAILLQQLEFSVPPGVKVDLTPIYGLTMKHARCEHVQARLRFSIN
# Cytochrome P450 2C9 = Cytochrome P450 2C9 (Homo sapiens, UniProt P11712)
# Sequence of Cytochrome P450 2C9 (P11712 whole entry): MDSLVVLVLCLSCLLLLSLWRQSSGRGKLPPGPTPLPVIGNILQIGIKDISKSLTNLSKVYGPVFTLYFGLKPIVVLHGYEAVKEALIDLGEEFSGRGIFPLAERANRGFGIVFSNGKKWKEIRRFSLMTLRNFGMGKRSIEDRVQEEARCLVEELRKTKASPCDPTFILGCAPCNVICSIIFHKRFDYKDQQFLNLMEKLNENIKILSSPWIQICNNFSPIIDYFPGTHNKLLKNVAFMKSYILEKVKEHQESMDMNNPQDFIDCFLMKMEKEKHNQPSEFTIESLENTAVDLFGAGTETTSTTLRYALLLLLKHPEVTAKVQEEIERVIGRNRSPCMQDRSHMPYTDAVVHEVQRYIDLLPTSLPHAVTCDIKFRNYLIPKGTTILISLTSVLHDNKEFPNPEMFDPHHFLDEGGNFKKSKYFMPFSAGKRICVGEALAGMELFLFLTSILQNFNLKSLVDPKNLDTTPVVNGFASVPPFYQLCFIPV
# [3] = alpha-synuclein stem-loop luciferase translation blockers – H4 neuroglioma cells, luminescence, confirmation (AID 1988); type: functional, cell-based
# [4] = Luminescence Cell-Based Dose Response HTS to Identify Inhibitors of 5'UTR Stem-Loop Driven Prion Protein mRNA Translation in H4 Neuroglioblastoma Cells. [Related pubchem assays: 1827 (Project Summary), 1813 (Primary HTS)]; type: functional
# [5] = luciferase reporter signal suppression in cells – H4 neuroglioma cells, luminescence, dose response (AID 1990); type: functional, cell-based
# BJ [6] = test: cells; type: functional, cell-based; settings: Homo sapiens
# BJ [7] = test: BJ-TERT fibroblast viability loss – cell-based, RAS-independent, luminescence, dose response (AID 1933); type: functional; settings: Homo sapiens
# BJ [8] = test: BJ-TERT-LT-ST fibroblast viability loss – cell-based, RAS-independent, luminescence, dose response (AID 1935); type: functional; settings: Homo sapiens;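 note: BJ fibroblasts immortalized with TERT plus LT and ST oncogenes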
# [9] = molecular target: T3, Rac GTPase-activating protein 1 (Homo sapiens, UniProt Q9H0H5); test: blockers of MgcRacGAP-driven Rac1 GTP hydrolysis – biochemical, ADP Hunter fluorescence, primary and confirmatory, confirmation (AID 624330); type: functional
# T3 sequence (Q9H0H5 whole entry): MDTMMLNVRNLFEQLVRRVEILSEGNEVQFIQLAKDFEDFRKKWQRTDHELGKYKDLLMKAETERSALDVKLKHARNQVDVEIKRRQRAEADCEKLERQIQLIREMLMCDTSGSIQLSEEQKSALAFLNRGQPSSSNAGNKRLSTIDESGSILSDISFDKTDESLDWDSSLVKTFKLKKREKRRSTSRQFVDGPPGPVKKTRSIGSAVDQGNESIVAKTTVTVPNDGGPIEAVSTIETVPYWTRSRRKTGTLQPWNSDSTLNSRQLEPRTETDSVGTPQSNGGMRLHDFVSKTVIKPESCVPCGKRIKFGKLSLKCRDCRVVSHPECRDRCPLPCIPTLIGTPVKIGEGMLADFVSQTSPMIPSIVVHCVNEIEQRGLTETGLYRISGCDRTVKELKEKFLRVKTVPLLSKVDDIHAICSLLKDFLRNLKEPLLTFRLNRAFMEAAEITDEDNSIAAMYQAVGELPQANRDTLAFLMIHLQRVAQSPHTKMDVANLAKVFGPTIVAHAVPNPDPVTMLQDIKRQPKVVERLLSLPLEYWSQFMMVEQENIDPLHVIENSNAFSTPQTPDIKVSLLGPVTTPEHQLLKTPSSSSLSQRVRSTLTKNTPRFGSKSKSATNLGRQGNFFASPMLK
# [10] = DRD fibroblast viability loss – cell-based, non-viral oncogenic, luminescence, dose response (AID 1934); type: functional; settings: Homo sapiens
# Cytochrome P450 3A4 = Cytochrome P450 3A4 (Homo sapiens, UniProt P08684);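 note: CYP3A4 tested as one member of a cytochrome P450 panel screen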
# Sequence of Cytochrome P450 3A4 (P08684 whole entry): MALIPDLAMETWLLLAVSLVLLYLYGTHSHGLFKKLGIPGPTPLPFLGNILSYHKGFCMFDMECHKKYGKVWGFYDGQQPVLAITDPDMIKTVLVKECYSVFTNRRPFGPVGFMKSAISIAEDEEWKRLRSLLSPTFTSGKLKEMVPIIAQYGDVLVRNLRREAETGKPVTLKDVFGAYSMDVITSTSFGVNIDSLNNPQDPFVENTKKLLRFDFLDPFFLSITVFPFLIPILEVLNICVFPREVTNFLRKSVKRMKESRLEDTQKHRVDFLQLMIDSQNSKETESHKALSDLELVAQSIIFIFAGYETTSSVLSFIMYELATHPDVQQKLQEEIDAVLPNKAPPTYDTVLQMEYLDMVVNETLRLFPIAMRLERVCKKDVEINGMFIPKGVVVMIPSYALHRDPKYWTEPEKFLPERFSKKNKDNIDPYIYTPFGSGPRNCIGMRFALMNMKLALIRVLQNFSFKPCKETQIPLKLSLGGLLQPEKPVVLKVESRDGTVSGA
# Sequence of Cytochrome P450 2D6 (P10635 whole entry): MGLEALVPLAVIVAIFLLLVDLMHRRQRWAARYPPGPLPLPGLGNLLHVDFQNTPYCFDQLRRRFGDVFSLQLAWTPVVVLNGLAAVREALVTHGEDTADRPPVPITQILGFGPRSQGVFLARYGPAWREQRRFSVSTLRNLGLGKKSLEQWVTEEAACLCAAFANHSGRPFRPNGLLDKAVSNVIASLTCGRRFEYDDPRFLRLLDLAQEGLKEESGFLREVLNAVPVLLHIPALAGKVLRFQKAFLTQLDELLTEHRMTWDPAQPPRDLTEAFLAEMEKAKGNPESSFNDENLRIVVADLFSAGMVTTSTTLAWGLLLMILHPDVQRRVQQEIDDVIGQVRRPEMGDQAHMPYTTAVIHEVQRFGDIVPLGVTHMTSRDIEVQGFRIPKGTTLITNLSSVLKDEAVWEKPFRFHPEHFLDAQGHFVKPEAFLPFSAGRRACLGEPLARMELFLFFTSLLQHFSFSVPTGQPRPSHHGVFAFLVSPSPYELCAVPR
smiles,measurement,setting,value
CN1CCc2cccc(Cl)c2CC1,AC50,Cytochrome P450 2D6,31.6 µM (inconclusive)
Cc1ccc(OC(=O)c2ccc(Br)o2)cc1,IC50,cells,18.5 µM (active)
FC(F)(F)c1ccccc1-c1nc(NCCN2CCOCC2)c2ccccc2n1,AC50,Cytochrome P450 2D6,31.6 µM (inconclusive)
Cc1cc(C(=O)COc2cccc3cccnc23)c(C)n1C,EC50,[1],> 53 µM (inactive)
same,IC50,cells,6.66 µM (active)
O=C(c1n[nH]c(=O)c2ccccc12)N1CCN(C2c3ccccc3-c3ccccc32)CC1,AC50,Cytochrome P450 2D6,31.6 µM (inconclusive)
Cc1ccc(NC(=O)/C=C/c2ccc3c(c2)OCO3)nc1,AC50,[2],1.08 µM (active)
Cc1cnc(CNc2nc(-c3ccccc3C(F)(F)F)nc3ccccc23)cn1,AC50,Cytochrome P450 2D6,25.1 µM (inconclusive)
same,AC50,Cytochrome P450 2C19,39.8 µM (inconclusive)
CCCCCCCCCCCCC(=O)N1CCCC[C@H]1CNC(=O)[C@@H](N)CCCCN,AC50,Cytochrome P450 2D6,25.1 µM (inconclusive)
same,AC50,Cytochrome P450 1A2,31.6 µM (inconclusive)
same,AC50,Cytochrome P450 2C9,10 µM (inconclusive)
CN(C)S(=O)(=O)c1ccc(C(=O)Oc2ccccc2)cc1,IC50,cells,7.22 µM (active)
CCOc1ccc(C2C(C(=O)O)c3ccccc3C(=O)N2CCN2CCOCC2)cc1 (centres undefined),AC50,Cytochrome P450 2D6,25.1 µM (inconclusive)
CCc1nc(SCC(=O)NC2CC2)c2c(C)c(C)sc2n1,EC50,[3],> 120 µM (not active)
same,EC50,[4],> 120 µM (not active)
same,EC50,[5],16.7 µM (active)
Cc1cc(C)nc(NC(=NC(=O)Nc2ccc(Cl)cc2)NCCc2c[nH]c3ccccc23)n1,AC50,[2],2.28 µM (active)
CCOC(=O)C1CSC(CC(=O)Nc2ccc(Cl)c(Cl)c2)C(=O)N1 (centres undefined),IC50,cells,36.2 µM (active)
COc1ccccc1N1CCN(C(=O)c2ccc([N+](=O)[O-])s2)CC1,IC50,cells,46.4 µM (active)
Fc1ccc(Br)cc1C1C=C(c2ccc(Br)cc2)Nc2ncnn21 (centres undefined),EC50,[1],> 53 µM (inactive)
COc1ccc(NN/C=C2/C(=O)NC(=O)N(c3ccc(C)c(C)c3)C2=O)cc1,EC50,[3],> 120 µM (not active)
same,EC50,[4],> 120 µM (not active)
same,EC50,[5],15.2 µM (active)
same,AC50,[2],0.716 µM (active)
Cc1cccc(CNc2ccnc(-c3cccc(C#N)c3)n2)c1,AC50,Cytochrome P450 2D6,25.1 µM (inconclusive)
same,AC50,Cytochrome P450 2C9,0.794 µM (inconclusive)
COc1cccc(-c2cncnc2NCc2cccnc2)c1,AC50,Cytochrome P450 2D6,20 µM (inconclusive)
CCOC(=O)COc1ccc(C(=O)Nc2cccc(Cl)c2C)cc1,IC50,cells,0.52 µM (active)
O=C1NCCc2c1[nH]c1ccc([N+](=O)[O-])cc21,EC50,[3],16.3 µM (active)
same,EC50,[4],15.6 µM (active)
same,EC50,[5],12.9 µM (active)
CC(=O)c1cc2c(ccc3ccccc32)oc1=O,IC50,cells,15.4 µM (active)
Clc1ccccc1-c1nc(NCCN2CCOCC2)c2ccccc2n1,AC50,Cytochrome P450 2D6,20 µM (inconclusive)
same,AC50,Cytochrome P450 2C19,25.1 µM (inconclusive)
CC(C)OCCCNc1nc2c(c(=O)n(Cc3ccccc3F)c(=O)n2C)n1C,EC50,[3],> 120 µM (not active)
same,EC50,[4],> 120 µM (not active)
same,EC50,[5],16.8 µM (active)
CCc1ccc(C(=O)COC(=O)c2ccc(Cl)nc2)cc1,IC50,cells,> 50 µM (active)
CN(C)C(=O)c1ccc(-c2nccc(NCc3cccs3)n2)cc1,AC50,Cytochrome P450 2D6,20 µM (inconclusive)
same,AC50,Cytochrome P450 2C19,20 µM (inconclusive)
COc1ccc2sc(-c3ccc(N(C)C)cc3)c(C#Cc3cncn3C)c2c1,AC50,[2],1.11 µM (active)
Cc1ccc(/C=C2/C(=O)ON=C2c2ccccc2)o1,EC50,BJ [6],18.3 µM (active)
same,EC50,BJ [7],12.8 µM (active)
same,EC50,BJ [8],> 150 µM (inconclusive)
same,IC50,[9],36.9 µM (active)
same,EC50,[10],12.2 µM (active)
O=C(Cn1cc([N+](=O)[O-])nc1[N+](=O)[O-])N1CCN(c2ccccc2)CC1,IC50,cells,7.01 µM (active)
COc1ccc(-c2nc(CS(=O)(=O)CC(=O)NCCCc3ccccc3)c(C)o2)cc1,EC50,[3],14.5 µM (active)
same,EC50,[4],> 120 µM (not active)
same,EC50,[5],> 120 µM (not active)
COc1ccccc1N1CCN(C(=O)CCc2nnc3ccc(N4CCC(C)CC4)nn23)CC1,EC50,[3],17.3 µM (active)
same,EC50,[4],> 120 µM (not active)
same,EC50,[5],11.2 µM (active)
CCOc1cccc(NC(=O)CSc2nc(C)c3c(c2C#N)CCCC3)c1,AC50,Cytochrome P450 2D6,0.0794 µM (inconclusive)
same,AC50,Cytochrome P450 2C19,0.178 µM (inconclusive)
Cc1cc(C)c(NC(=O)CSCc2c(C)noc2C)c(C)c1,AC50,[2],> 195 µM (inactive)
Cc1cc(C)c2c(-n3cccc3)nn(CC#N)c2n1,AC50,Cytochrome P450 3A4,15.8 µM (inconclusive)
same,AC50,Cytochrome P450 2D6,10 µM (inconclusive)
same,AC50,Cytochrome P450 2C9,14.1 µM (inconclusive)
CCOC(=O)C1=C(C)N=C(C)/C(=C(/O)OCC)C1c1ccccc1/C=C/C(=O)OC(C)(C)C (centres undefined),AC50,[2],3.4 µM (active)
COc1ccc(-c2c(-c3cc(OC)cc(OC)c3)n(C)c3ccc(-c4cc(F)cc(OC)c4)cc23)cc1,AC50,[2],> 195 µM (inactive)
O=c1cc(-c2ccncc2)oc2c1ccc1ccccc12,IC50,cells,17.9 µM (active)
O=C(NCCc1ccccc1)c1cnc2ccccc2c1O,EC50,[1],> 53 µM (inactive)
COc1ccc(C(=O)O/N=C/c2c(C(F)(F)F)nn(C)c2SCc2ccccc2Cl)cc1,EC50,[3],12 µM (active)
same,EC50,[4],12.8 µM (active)
same,EC50,[5],17 µM (active)
COC(=O)C1=C(C)N=C(C)/C(=C(/O)O[C@@H]2CCCN(Cc3ccccc3)C2)[C@@H]1c1cccc([N+](=O)[O-])c1,EC50,[3],9.3 µM (active)
same,EC50,[4],14.6 µM (active)
same,EC50,[5],12 µM (active)
Cc1cc(-c2ccc(/C=N/n3cnnc3)o2)c([N+](=O)[O-])cc1C,AC50,Cytochrome P450 2D6,11.2 µM (inconclusive)
Cc1nnc(S)n1/N=C/c1ccc(OCc2ccc(Cl)cc2Cl)cc1,IC50,cells,43.8 µM (active)
O=C(O)[C@@H]1C[C@@H](C(=O)O)N1,AC50,Cytochrome P450 2D6,39.8 µM (inconclusive)
N#C/C(=C\c1c[nH]c2ccccc12)C(=O)c1ccc(O)c(O)c1,AC50,Cytochrome P450 2D6,25.1 µM (inconclusive)
same,AC50,Cytochrome P450 2C19,31.6 µM (inconclusive)
same,AC50,Cytochrome P450 2C9,31.6 µM (inconclusive)
CCCCCCCCCOc1ccc2[nH]cc(CCN)c2c1,AC50,Cytochrome P450 3A4,39.8 µM (inconclusive)
same,AC50,Cytochrome P450 2D6,25.1 µM (inconclusive)
same,AC50,Cytochrome P450 2C9,25.1 µM (inconclusive)
